Experimental data reported in patent US4450115A, “Amino-alcohol derivatives” (Kyowa Hakko Kogyo Co., Ltd., priority 1979, dated 1984).
Counter-ions that a name gives are not always drawn. Like-named read-outs stand apart in the source and are kept apart here.

How the values were obtained:
[1] = tested on: main artery of the dogs' organ; test: Effect on organ blood flow; format: in vivo, mongrel dogs; conditions: Canis lupus familiaris, iv, Table 5, femoral vein;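 further: percent change relative to blood flow before compound administration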
Description: (§1) In experiments (a), (b), (c) and (d), 3-4 male or female mongrel dogs (weight: 10-20 Kg) as one group were anesthetized by intravenous administration of 30 mg/kg of pentobarbital-Na. All compounds were dissolved in polyethylene glycol 400 and administered to the femoral vein.
(b) Effect on organ blood flow M (%)
In this test, 1 mg/kg of each compound shown in Tables 5 and 7 is administered to the dogs and an electromagnetic probe is attached to the main artery of the dogs' organ to measure the flow of blood.

[2] = in vivo; conditions: mouse, male dd-strain mice
Source text: The test compounds were orally administered to male dd-strain mice weighing 20-25 g.

[3] = tested on: α-adrenergic receptor; test: α blocking activity (inhibition of Norepinephrine-induced increase in systolic blood pressure); format: in vivo, mongrel dogs; conditions: Table 6, dogs, 3 μg/kg Norepinephrine i.v.
Description: as §1
(c-1) α blocking activity
In this test, 3 μg/kg of Norepinephrine is intravenously administered to the dogs to cause an increase in systolic blood pressure.

[4] = tested on: β1-adrenergic receptor; test: β1 blocking activity (inhibition of Isoproterenol-induced increase in heart rate); format: in vivo, mongrel dogs; conditions: Table 6, dogs, 0.5 μg/kg Isoproterenol i.v.
Description: as §1
(c-2) β1 blocking activity
In this test, 0.5 μg/kg of Isoproterenol is intravenously administered to the dogs to cause an increase in the heart rate.

[5] = tested on: β2-adrenergic receptor; test: β2 blocking activity (inhibition of Isoproterenol-induced decrease in diastolic blood pressure); format: in vivo, mongrel dogs; conditions: Table 6, dogs, 0.5 μg/kg Isoproterenol i.v.
Description: as §1
(c-3) β2 blocking activity
In this test, 0.5 μg/kg of Isoproterenol is intravenously administered to the dogs to cause a decrease in diastolic blood pressure.

[6] = read-out: Organ blood flow, Crotch (percentage change)
[7] = read-out: Organ blood flow, Malleus (percentage change)

| Compound | change in vivo at 1 mg/kg [1, 6] [%] | change in vivo at 1 mg/kg [1, 7] [%] | LD50 ([2]; Table 5, oral) [mg/kg] | LD50 ([2]; Table 6, oral) [mg/kg] | α blocking activity, percentage inhibition ([3]; test compound 0.1 mg/kg) | β1 blocking activity, percentage inhibition ([4]; test compound 0.1 mg/kg) | β2 blocking activity, percentage inhibition ([5]; test compound 0.1 mg/kg) | also measured |
| --- | --- | --- | --- | --- | --- | --- | --- | --- |
| Cc1cccc(OCC(O)CNCC2COc3ccccc3O2)c1 (stereo not shown) [Compound 1, 1-(3-methylphenoxy)-3-(1,4-benzodioxane-2-methaneamino)-2-propanol] | 35 | 67 | 1000 to 2000 | – | – | – | – | – |
| CC(=O)Nc1ccc(OCC(O)CNCC2COc3ccccc3O2)cc1 (stereo not shown) [Compound 2, 1-(4-acetamidophenoxy)-3-(1,4-benzodioxane-2-methaneamino)-2-propanol] | 20 | 50 | 500 to 1000 | – | – | – | – | – |
| N#Cc1ccccc1OCC(O)CNCC1COc2ccccc2O1 (stereo not shown) [Compound 3, 1-(2-cyanophenoxy)-3-(1,4-benzodioxane-2-methaneamino)-2-propanol] | -21 | 18 | 420 | – | – | – | – | – |
| CCOC(=O)Cc1ccc(OCC(O)CNCC2COc3ccccc3O2)cc1 (stereo not shown) [Compound 5, 1-(4-ethoxycarbonylmethyl)phenoxy-3-(1,4-benzodioxane-2-methaneamino)-2-propanol] | -26 | -84 | > 1000 | – | – | – | – | – |
| Cc1cccc(OCC(O)CNCC2COc3ccccc3O2)c1C (stereo not shown) [Compound 6, 1-(2,3-dimethylphenoxy)-3-(1,4-benzodioxane-2-methaneamino)-2-propanol] | 17 | -9 | > 1000 | – | – | – | – | – |
| OC(CNCC1COc2ccccc2O1)COc1cccc2ccccc12 (stereo not shown) [Compound 7, 1-(1-naphthyloxy)-3-(1,4-benzodioxane-2-methaneamino)-2-propanol] | -36 | 59 | > 1000 | – | – | – | – | – |
| COc1ccc(C(O)C(C)NCC2COc3ccccc3O2)cc1C (stereo not shown) [Compound 8, 1-(3-methyl-4-methoxy)phenyl-2-(1,4-benzodioxane-2-methaneamino)propanol] | -67 | -4 | 450 | – | – | – | – | – |
| Cc1c(C(O)CNCC2COc3ccccc3O2)oc2ccc(F)cc12 (stereo not shown) [Compound 9, 1-(5-fluoro-3-methyl-2-benzofuranyl)-2-(1,4-benzodioxane-2-methaneamino)ethanol] | 42 | 35 | – | – | – | – | – | – |
| COC(=O)c1cc(C(O)CNCC2COc3ccccc3O2)ccc1O (stereo not shown) [Compound 10, 1-(3-methoxycarbonyl-4-hydroxy)phenyl-2-(1,4-benzodioxane-2-methaneamino)ethanol] | -50 | -16 | – | – | – | – | – | – |
| CC(CCc1ccccc1)NCC(O)COc1ccc(CC(N)=O)cc1 (stereo not shown) [Compound 11, 1-(4-carbamoylmethylphenoxy)-3-(1-methyl-3-phenylpropylamino)-2-propanol] | – | – | – | > 1000 | – | – | – | α blocking activity, percentage inhibition ([3]; *dose of compound 1 mg/kg): -78%; β1 blocking activity, percentage inhibition ([4]; *dose of compound 1 mg/kg): -86%; β2 blocking activity, percentage inhibition ([5]; *dose of compound 1 mg/kg): -22% |
| CC(CCc1ccccc1)NCC(O)COc1ccccc1C#N (stereo not shown) [Compound 12, 1-(2-cyanophenoxy)-3-(1-methyl-3-phenylpropylamino)-2-propanol] | – | – | – | 125 to 250 | – | – | – | α blocking activity, percentage inhibition ([3]; *dose of compound 1 mg/kg): -52%; β1 blocking activity, percentage inhibition ([4]; *dose of compound 1 mg/kg): -100%; β2 blocking activity, percentage inhibition ([5]; *dose of compound 1 mg/kg): -100% |
| Cc1cccc(OCC(O)CNC(C)CCc2ccccc2)c1C (stereo not shown) [Compound 13, 1-(2,3-dimethylphenoxy)-3-(1-methyl-3-phenylpropylamino)-2-propanol] | – | – | – | 500 to 1000 | -20% | -73% | -34% | – |
| CCOC(=O)Cc1ccc(OCC(O)CNC(C)CCc2ccccc2)cc1 (stereo not shown) [Compound 14, 1-(4-ethoxycarbonylmethylphenoxy)-3-(1-methyl-3-phenylpropylamino)-2-propanol] | – | – | – | > 1000 | +13% | -11% | +2% | – |
| COC(=O)c1ccccc1OCC(O)CNC(C)CCc1ccccc1 (stereo not shown) [Compound 15, 1-(2-methoxycarbonylphenoxy)-3-(1-methyl-3-phenylpropylamino)-2-propanol] | – | – | – | 500 to 1000 | -2% | -30% | -40% | – |
| CC(CCc1ccccc1)NCC(O)COc1ccccc1C(N)=O (stereo not shown) [Compound 16, 1-(2-carbamoylphenoxy)-3-(1-methyl-3-phenylpropylamino)-2-propanol] | – | – | – | 250 to 500 | -28% | -57% | -19% | – |
| CC(CCc1ccccc1)NCC(O)COc1ccc(CC(=O)O)cc1 (stereo not shown) [Compound 17, 1-(4-carboxymethylphenoxy)-3-(1-methyl-3-phenylpropylamino)-2-propanol] | – | – | – | > 1000 | +15% | +13% | -13% | – |
| CC(CCc1ccccc1)NCC(O)COc1ccc(CC(=O)NN)cc1 (stereo not shown) [Compound 18, 1-(4-hydrazinocarbonylmethylphenoxy)-3-(1-methyl-3-phenylpropylamino)-2-propanol] | – | – | – | > 1000 | +10% | -3% | +2% | – |
| CCOC(=O)Cc1cccc(OCC(O)CNC(C)CCc2ccccc2)c1 (stereo not shown) [Compound 19, 1-(3-ethoxycarbonylmethylphenoxy)-3-(1-methyl-3-phenylpropylamino)-2-propanol] | – | – | – | > 1000 | +23% | -7% | +14% | – |
| CC(CCc1ccccc1)NCC(O)COc1cccc(CC(N)=O)c1 (stereo not shown) [Compound 20, 1-(3-carbamoylmethylphenoxy)-3-(1-methyl-3-phenylpropylamino)-2-propanol] | – | – | – | > 1000 | +7% | -9% | +9% | – |
| CCOC(=O)Cc1ccc(C(O)CNC(C)CCc2ccccc2)cc1 (stereo not shown) [Compound 21, 1-(4-ethoxycarbonylmethylphenyl)-2-(1-methyl-3-phenylpropylamino) ethanol] | – | – | – | > 1000 | +9% | -10% | -8% | – |
| CC(CCc1ccccc1)NCC(O)c1ccc(CC(N)=O)cc1 (stereo not shown) [Compound 22, 1-(4-carbamoylmethylphenyl)-2-(1-methyl-3-phenylpropylamino) ethanol] | – | – | – | > 1000 | +19% | -8% | -11% | – |
| CC(=O)Nc1ccc(OCC(O)CNCc2ccc3c(c2)OCCO3)cc1 (stereo not shown) [Compound 23, 1-(4-acetamidophenoxy)-3-(1,4-benzodioxane-6-methaneamino)-2-propanol] | 90 | 67 | > 1000 | – | – | – | – | – |
| O=C1CCCc2c(OCC(O)CNCc3ccc4c(c3)OCCO4)cccc21 (stereo not shown) [Compound 24, 1-{3,4-dihydro-1(2H)-naphthalenon-5-yl}oxy-3-(1,4-benzodioxane-6-methaneamino)-2-propanol] | 106 | 60 | > 1000 | – | – | – | – | – |
| NC(=O)Cc1ccc(OCC(O)CNCc2ccc3c(c2)OCCO3)cc1 (stereo not shown) [Compound 25, 1-(4-carbamoylmethylphenoxy)-3-(1,4-benzodioxane-6-methaneamino)-2-propano] | 90 | 22 | > 1000 | – | – | – | – | – |
| COc1ccc(OCC(C)NCC(O)COc2ccccc2C#N)cc1 (stereo not shown) [Compound 31] | – | – | – | 125 to 250 | -20% | -54% | -30% | – |
| CCOC(=O)Cc1ccc(OCC(O)CNC(C)COc2ccc(OC)cc2)cc1 (stereo not shown) [Compound 32, 1-(4-ethoxycarbonylmethylphenoxy)-3-{1-methyl-2-(4-methoxyphenoxy)ethylamino}-2-propanol] | – | – | – | > 1000 | 0% | -11% | -2% | – |
| COc1ccc(OCC(C)NCC(O)COc2ccc(NC(C)=O)cc2)cc1 (stereo not shown) [Compound 33, 1-(4-acetamidophenoxy)-3-{1-methyl-2-(4-methoxyphenoxy)ethylamino}-2-propanol] | – | – | – | > 1000 | -21% | -52% | -13% | – |
| CC(CCc1ccccc1)NCC(O)c1ccc(O)c(C(N)=O)c1 (stereo not shown) [Reference compound, 5-[1-hydroxy-2-(1-methyl-3-phenylpropyl)aminoethyl] salicylamide hydrochloride, reference compound] | – | – | – | – | -32% | -69% | -50% | – |
